Legend:
[1] = biological target: C-C chemokine receptor type 10 (Homo sapiens) (UniProt P46092); experiment: Agonist activity at CCR10 (unknown origin)
[2] = biological target: C-C chemokine receptor type 10 (Homo sapiens) (UniProt P46092); experiment: Agonist activity at CCR10 (unknown origin); remark: listed apart in the source

Sequence of C-C chemokine receptor type 10 (Homo sapiens) (P46092 whole entry, looked up): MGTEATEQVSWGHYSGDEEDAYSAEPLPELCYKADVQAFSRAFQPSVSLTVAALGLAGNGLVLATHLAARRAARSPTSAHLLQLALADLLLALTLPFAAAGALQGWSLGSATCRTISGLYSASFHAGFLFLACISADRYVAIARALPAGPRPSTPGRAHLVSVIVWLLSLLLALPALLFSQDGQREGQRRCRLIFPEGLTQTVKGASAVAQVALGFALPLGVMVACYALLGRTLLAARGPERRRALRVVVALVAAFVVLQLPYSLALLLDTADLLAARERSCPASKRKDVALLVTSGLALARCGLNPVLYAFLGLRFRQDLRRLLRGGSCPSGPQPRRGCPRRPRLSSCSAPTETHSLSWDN

CC1=CCC[C@H]1NC(=O)Nc1ccc(Cl)c(S(=O)(=O)[C@@]2(C)CCOC2)c1O
IC50 [1]: > 10 µM | EC50 [2]: > 10 µM
